{"source": "patent US11357780B2", "about": "“Methods and compositions relating to the inhibition of IP6K1” (THE CHILDREN'S MEDICAL CENTER CORPORATION, priority 2018, dated 2022)", "molecules": {"B1": {"name": "MIP2: a common proinflammatory cytokine (protein, UniProt P10889 28-100, looked up)", "C-X-C motif chemokine 2": "AVVASELRCQCLKTLPRVDFKNIQSLSVTPPGPHCAQTEVIATLKGGQKVCLDPEAPLVQKIIQKILNKGKAN"}}, "key": {"platelets": {"system": "platelets", "experiment": "PolyP levels in platelets isolated from TNP-treated mice", "type": "in vivo, mouse", "conditions": "platelets from mice treated with TNP 20 mg/kg once a day for 10 days, vs DMSO-treated controls", "experimental": "(§1) FIG. 6A: PolyP levels in platelets. Mice were treated with TNP or DMSO alone for 10 days (20 mg/kg body weight, once a day). The experiment was repeated three times and the data were pooled and analyzed together. Data shown are means±SEM (n=7 mice per group). FIG. 6B: LPS-induced polyP secretion in neutrophil-platelet co-cultures. Neutrophils (5×10^6) isolated from DMSO (N-DMSO) or TNP (N-TNP)-treated mice and platelets (1×10^9) isolated from DMSO (P-DMSO) or TNP (P-TNP)-treated mice were incubated in the presence of LPS (5 μg/mL) for 2 h at 37° C. Data shown are means±SEM of four experiments. FIG. 6C: LPS-induced NPA formation. Neutrophils and platelets were isolated from DMSO (untreated) and TNP-treated mice and incubated with LPS (1 μg/mL) for 2 h at 37° C. […] NPA formation was analyzed at 24 hr after the LPS instillation. […] FIG. 6H: Recruited neutrophils in alveolar spaces were quantified as volume fraction of the alveolar space using standard point-counting morphometry. […] FIG. 6I: Pulmonary edema formation was quantified as the percentage of edema area in the total parenchymal region using. […] FIG. 6J: Lung vascular permeability was evaluated by BALF total protein level. […] FIG. 6K: Lung wet weight-to-dry weight ratio was measured at 24 hr after E. coli instillation. […] NPA % was calculated as the percentage of CD66+, CD16+ and CD41 triple-positive cells (NPAs) among all CD66+ and CD16+ cells. […]"}, "[1]": {"system": "neutrophil-platelet co-cultures", "experiment": "LPS-induced polyP secretion in neutrophil-platelet co-cultures", "type": "cell-based, mouse", "conditions": "cells from TNP-treated mice, LPS 5 μg/mL, 2 h, 37° C., vs DMSO-treated controls", "experimental": "as §1"}, "[2]": {"system": "neutrophils and platelets", "experiment": "Ex vivo neutrophil-platelet aggregate (NPA) formation, FACS", "type": "cell-based, mouse", "experimental": "Neutrophil-platelet aggregation. Mouse and human neutrophils were isolated and purified as previously described (31). Whole blood was collected into ACD tubes and platelet-rich plasma was isolated by centrifuging twice at 100×g for 5 min. Neutrophils (0.5×106) and platelets (5×106) were incubated for 2 h at 37° C. with LPS in 1 ml Tyrode's buffer (Sigma) supplemented with 1% BSA. After incubation, mouse neutrophils and platelets were stained with CD11b, CD41, and Ly6G and analyzed by flow cytometry to detect NPAs. Human neutrophils and platelets were stained with CD66, CD16, and CD41. NPA % was calculated as the percentage of CD66+, CD16+ and CD41 triple-positive cells (NPAs) among all CD66+ and CD16+ cells.\nFlow cytometry. Murine neutrophils and platelets were incubated as described above. Cells were then harvested, washed with ice-cold PBS, and stained with APC0-CD11b (eBioscience), PE-CY7-Ly6G (BD Bioscience), FITC-CD41 (eBioscience), and […] to detect leukocyte and platelet antigens. Samples were examined with a FACSCanto II™ flow cytometer (Becton Dickinson). Neutrophils were gated by their forward- and side-scatter characteristics and by their Ly-6G+/CD11b+ (neutrophil) expression pattern (30). Platelets were detected by CD41 staining NPAs were Ly-6G+CD41+. All data were analyzed using FlowJo™ software (TreeStar; FlowJo LLC)."}, "[3]": {"system": "LPS-induced lung inflammation", "experiment": "LPS-induced lung inflammation in mice", "type": "in vivo, mouse", "conditions": "TNP-treated mice, 5 mg/kg LPS intratracheal, 24 hr", "experimental": "Bacteria or LPS-induced acute pneumonia. After anesthesia with ketamine hydrochloride (100 mg/kg intraperitoneally (i.p.)) and xylazine (10 mg/kg i.p.), mouse tracheas were surgically exposed and a total volume of 40 μl of saline, a dose of 2×10^6 cfu of E. coli (strain 19138; American Type Culture Collection), a dose of 5×10^8 cfu of Stapyhlococcus aureus (strain 10390; American Type Culture Collection), or the indicated amount of LPS (LPS from E. coli O111:B4 or LPS from E. coli O157:H7; Sigma-Aldrich was instilled intratracheally via an angiocatheter inserted through the trachea and into the left bronchus. Colloidal carbon (1%) was included in the instillate to indicate deposition. […]\nNeutrophil accumulation. […] The total number of cells in the BALF was counted by hemocytometry. […] The percentage of neutrophils in the whole population (% PMN) was determined accordingly. Total numbers of neutrophils (#PMN) recruited was calculated as follows: [#PMN]=[cell density]×volume×[% PMN]. Emigrated neutrophils in the alveolar air spaces were also quantified by morphometric analysis of tissue sections. Emigrated neutrophils in lung sections (5 mice/group) 24 h after infection were quantified using standard point-counting morphometry (7). […] At least three grids (300 points) were counted for each lung. […]"}, "E. coli": {"system": "E. coli", "experiment": "E. coli-induced bacterial pneumonia in mice", "type": "in vivo, mouse", "experimental": "Bacteria or LPS-induced acute pneumonia. After anesthesia with ketamine hydrochloride (100 mg/kg intraperitoneally (i.p.)) and xylazine (10 mg/kg i.p.), mouse tracheas were surgically exposed and a total volume of 40 μl of saline, a dose of 2×10^6 cfu of E. coli (strain 19138; American Type Culture Collection), a dose of 5×10^8 cfu of Stapyhlococcus aureus (strain 10390; American Type Culture Collection), or the indicated amount of LPS (LPS from E. coli O111:B4 or LPS from E. coli O157:H7; Sigma-Aldrich was instilled intratracheally via an angiocatheter inserted through the trachea and into the left bronchus. Colloidal carbon (1%) was included in the instillate to indicate deposition. After surgery and wound closure, mice were suspended by their front legs to help deliver the instillate deep into the left lobe before being placed back into the cage with soft and warm bedding for recovery. Mice were euthanized by CO2 at each time point. For polyP treatment, Medium Chain Polyphosphate (p100) (Kerafast Inc) was injected intraperitoneally (50 μg/g body weight) 10 min after the instillation of LPS. For treatment with IP6K1 inhibitor TNP (N2-(m-(trifluoromethyl)benzyl) N6-(p-nitrobenzyl)purine), mice were injected intraperitoneally with TNP once a day (20 mg/kg body weight) for 10 days before the induction of lung inflammation. TNP (Tocris Bioscience) was dissolved in DMSO/Tween80/water (1/1/8) at a concentration of 2 mg/ml and was injected directly without dilution.\nNeutrophil accumulation. WT and Ip6k1-KO mice were anesthetized and instilled with bacteria or LPS as described above. After 24 h, mice were euthanized by CO2. The chest cavity was opened and a catheter was tied to the trachea. Bronchoalveolar lavage (BAL) was performed (1 mL PBS/15 mM EDTA×10) in each group. The BAL fluid (BALF) was centrifuged at 450×g for 10 min. The total number of cells in the BALF was counted by hemocytometry. Differential cell counts were conducted on cytospin preparations stained with a modified Wright-Giemsa stain (Volu-Sol, Inc.). Neutrophils were identified by their lobular or segmented nuclei. The percentage of neutrophils in the whole population (% PMN) was determined accordingly. Total numbers of neutrophils (#PMN) recruited was calculated as follows: [#PMN]=[cell density]×volume×[% PMN]. Emigrated neutrophils in the alveolar air spaces were also quantified by morphometric analysis of tissue sections. Emigrated neutrophils in lung sections (5 mice/group) 24 h after infection were quantified using standard point-counting morphometry (7). Briefly, mice were euthanized and their hearts tied off to maintain pulmonary blood volume. Lungs were then excised and fixed by intratracheal instillation of Bouin's solution at a pressure of 23 cm H2O and embedded in paraffin. Five to 6 μm-thick sections were cut and stained with hematoxylin and eosin (H&E). Neutrophils could be easily recognized by their lobular or segmented nuclei under high magnification. A counting grid (10×10, covering 70,000 μm2 of the magnified field) was reflected onto the field of view using a drawing tube. Randomly selected fields of pneumonic peripheral lung largely free of non-capillary blood vessels and bronchioles or larger airways were examined. At least three grids (300 points) were counted for each lung. The relative volumes of the parenchymal regions occupied by emigrated neutrophils were calculated by investigators blinded to the identities of the mice and were expressed as a percentage of the total parenchymal region volume (including both tissue and air spaces).\nBALF total protein levels and cytokine/chemokine levels. BALF samples were obtained from mice 24 h after E. coli challenge. BAL was performed with 1 ml cold PBS/15 mM EDTA flushed in and out three times. Protein concentrations were measured in BALF using the Bio-Rad protein assay reagent. A standard curve was constructed using BSA. […]"}, "human platelets": {"system": "human platelets", "experiment": "PolyP levels in human platelets", "type": "cell-based", "conditions": "TNP 20 μM, room temperature, 4 days"}, "[4]": {"system": "human primary neutrophils and platelets", "experiment": "NPA formation between human neutrophils and platelets", "type": "cell-based", "experimental": "as §1"}, "[5]": {"system": "PtdIns(3,4,5)P3 signaling", "experiment": "PtdIns(3,4,5)P3 signaling (phospho-Akt western blot) in mouse neutrophils", "type": "cell-based", "experimental": "Mice were treated with TNP for 10 days (20 mg/kg body weight, once a day). Bone marrow neutrophils were isolated and lysed. Total/phosphorylated Akt in cell lysates was detected by western blotting. Relative amounts of phosphorylated Akt were quantified with NIH ImageJ™ software. Data shown are means±SEM of four experiments. *p<0.05 vs. neutrophils isolated from mice treated with DMSO alone"}, "[6]": {"system": "PtdIns(3,4,5)P3 signaling", "experiment": "PtdIns(3,4,5)P3 signaling in human neutrophils", "type": "cell-based", "conditions": "human neutrophils treated with TNP"}}, "note": "Entries after “also recorded” stand apart in the source; their conditions may differ.", "data": [{"molecule": "O=[N+]([O-])c1ccc(CNc2nc(NCc3cccc(C(F)(F)F)c3)nc3nc[nH]c23)cc1", "note": "[TNP, N2-(m-(trifluoromethyl)benzyl) N6-(p-nitrobenzyl)purine]", "values": [{"measurement": "intracellular polyP levels in platelets", "setting": "platelets", "result": "reduced"}, {"measurement": "LPS-elicited polyP secretion", "setting": "[1]", "result": "reduced"}, {"measurement": "LPS-induced ex vivo NPA formation", "setting": "[2]; neutrophils and platelets from TNP-treated mice, LPS 1 μg/mL, 2 h", "result": "inhibited"}, {"measurement": "infection-induced NPA formation in the lungs of live mice", "setting": "[3]", "result": "inhibited"}, {"measurement": "bactericidal activity (bacterial killing in inflamed lungs)", "setting": "E. coli; TNP 20 mg/kg i.p. once a day for 10 days before E. coli instillation", "result": "much improved"}, {"measurement": "edema formation", "setting": "E. coli; TNP-treated mice", "result": "less edema formation"}, {"measurement": "neutrophil accumulation in the inflamed lungs, BALF neutrophil counts", "setting": "E. coli; TNP-treated mice", "result": "suppressed"}, {"measurement": "neutrophil accumulation in the inflamed lungs, morphometric analysis of lung sections", "setting": "E. coli; TNP-treated mice", "result": "suppressed"}, {"measurement": "total BALF protein levels", "setting": "E. coli; TNP-treated mice", "result": "decreased"}, {"measurement": "pulmonary vascular permeability by lung wet-to-dry ratio", "setting": "E. coli; TNP-treated mice, 24 hr after E. coli instillation", "result": "reduction"}, {"measurement": "polyP levels in human platelets", "setting": "human platelets", "result": "reduced"}, {"measurement": "NPA formation", "setting": "[4]; TNP-treated neutrophils and untreated platelets", "result": "unaltered"}, {"measurement": "LPS-induced NPA formation", "setting": "[4]; human primary neutrophils and platelets treated with TNP", "result": "suppressed"}, {"measurement": "PtdIns(3,4,5)P3-mediated cellular functions", "setting": "[5]; mouse neutrophils treated with TNP", "result": "elevated"}, {"measurement": "PtdIns(3,4,5)P3 signaling, assessed by phospho-Akt", "setting": "[5]; mouse neutrophils, TNP 20 mg/kg once a day for 10 days, bone marrow neutrophils", "result": "substantially enhanced; also recorded: elevated"}, {"measurement": "PtdIns(3,4,5)P3-mediated cellular functions", "setting": "[6]", "result": "elevated"}, {"measurement": "PtdIns(3,4,5)P3 signaling", "setting": "[6]", "result": "substantially enhanced"}]}, {"molecule": "HOE140", "values": [{"measurement": "LPS-induced NPA formation", "setting": "[2]; neutrophils pretreated with HOE140 150 nM for 5 min", "result": "inhibited"}]}, {"molecule": "LYS-BK", "values": [{"measurement": "NPA formation between IP6K1-deficient platelets and neutrophils", "setting": "[2]; Lys-BK 1 μM together with HKa", "result": "could not restore NPA formation"}]}, {"molecule": "B1", "values": [{"measurement": "NPA formation", "setting": "[2]; MIP2 1 nM in place of LPS", "result": "failed to induce the same NPA formation"}]}]}
